# Measurements as given in US20240335420A1, “N-ACYLHYDRAZONE COMPOUNDS CAPABLE OF INHIBITING NAV 1.7 AND/OR NAV 1.8, PROCESSES FOR THE PREPARATION THEREOF, COMPOSITIONS, USES, METHODS FOR TREATMENT USING SAME AND KITS” (EUROFARMA LABORATÓRIOS S.A., priority 2021, published 2024).
# Legend:
# [1] = molecular target: human sodium channels Nav 1.8 (Homo sapiens (Human), UniProt Q9Y5Y9); test: Automated whole-cell voltage-clamp (ScreenPatch 384P), Nav 1.8 sodium current, Protocol 1; type: cell-based; details: CHO cells expressing human Nav 1.8; for IC50: Protocol 1 (holding −90 mV, 0.1 Hz), room temperature, read-out: Nav1.8 IC50; for inhibition at 10 µM: Protocol 1, read-out: Nav1.8 percent of inhibition (IC50 value not available)
# Chain of human sodium channels Nav 1.8 (Q9Y5Y9 whole entry): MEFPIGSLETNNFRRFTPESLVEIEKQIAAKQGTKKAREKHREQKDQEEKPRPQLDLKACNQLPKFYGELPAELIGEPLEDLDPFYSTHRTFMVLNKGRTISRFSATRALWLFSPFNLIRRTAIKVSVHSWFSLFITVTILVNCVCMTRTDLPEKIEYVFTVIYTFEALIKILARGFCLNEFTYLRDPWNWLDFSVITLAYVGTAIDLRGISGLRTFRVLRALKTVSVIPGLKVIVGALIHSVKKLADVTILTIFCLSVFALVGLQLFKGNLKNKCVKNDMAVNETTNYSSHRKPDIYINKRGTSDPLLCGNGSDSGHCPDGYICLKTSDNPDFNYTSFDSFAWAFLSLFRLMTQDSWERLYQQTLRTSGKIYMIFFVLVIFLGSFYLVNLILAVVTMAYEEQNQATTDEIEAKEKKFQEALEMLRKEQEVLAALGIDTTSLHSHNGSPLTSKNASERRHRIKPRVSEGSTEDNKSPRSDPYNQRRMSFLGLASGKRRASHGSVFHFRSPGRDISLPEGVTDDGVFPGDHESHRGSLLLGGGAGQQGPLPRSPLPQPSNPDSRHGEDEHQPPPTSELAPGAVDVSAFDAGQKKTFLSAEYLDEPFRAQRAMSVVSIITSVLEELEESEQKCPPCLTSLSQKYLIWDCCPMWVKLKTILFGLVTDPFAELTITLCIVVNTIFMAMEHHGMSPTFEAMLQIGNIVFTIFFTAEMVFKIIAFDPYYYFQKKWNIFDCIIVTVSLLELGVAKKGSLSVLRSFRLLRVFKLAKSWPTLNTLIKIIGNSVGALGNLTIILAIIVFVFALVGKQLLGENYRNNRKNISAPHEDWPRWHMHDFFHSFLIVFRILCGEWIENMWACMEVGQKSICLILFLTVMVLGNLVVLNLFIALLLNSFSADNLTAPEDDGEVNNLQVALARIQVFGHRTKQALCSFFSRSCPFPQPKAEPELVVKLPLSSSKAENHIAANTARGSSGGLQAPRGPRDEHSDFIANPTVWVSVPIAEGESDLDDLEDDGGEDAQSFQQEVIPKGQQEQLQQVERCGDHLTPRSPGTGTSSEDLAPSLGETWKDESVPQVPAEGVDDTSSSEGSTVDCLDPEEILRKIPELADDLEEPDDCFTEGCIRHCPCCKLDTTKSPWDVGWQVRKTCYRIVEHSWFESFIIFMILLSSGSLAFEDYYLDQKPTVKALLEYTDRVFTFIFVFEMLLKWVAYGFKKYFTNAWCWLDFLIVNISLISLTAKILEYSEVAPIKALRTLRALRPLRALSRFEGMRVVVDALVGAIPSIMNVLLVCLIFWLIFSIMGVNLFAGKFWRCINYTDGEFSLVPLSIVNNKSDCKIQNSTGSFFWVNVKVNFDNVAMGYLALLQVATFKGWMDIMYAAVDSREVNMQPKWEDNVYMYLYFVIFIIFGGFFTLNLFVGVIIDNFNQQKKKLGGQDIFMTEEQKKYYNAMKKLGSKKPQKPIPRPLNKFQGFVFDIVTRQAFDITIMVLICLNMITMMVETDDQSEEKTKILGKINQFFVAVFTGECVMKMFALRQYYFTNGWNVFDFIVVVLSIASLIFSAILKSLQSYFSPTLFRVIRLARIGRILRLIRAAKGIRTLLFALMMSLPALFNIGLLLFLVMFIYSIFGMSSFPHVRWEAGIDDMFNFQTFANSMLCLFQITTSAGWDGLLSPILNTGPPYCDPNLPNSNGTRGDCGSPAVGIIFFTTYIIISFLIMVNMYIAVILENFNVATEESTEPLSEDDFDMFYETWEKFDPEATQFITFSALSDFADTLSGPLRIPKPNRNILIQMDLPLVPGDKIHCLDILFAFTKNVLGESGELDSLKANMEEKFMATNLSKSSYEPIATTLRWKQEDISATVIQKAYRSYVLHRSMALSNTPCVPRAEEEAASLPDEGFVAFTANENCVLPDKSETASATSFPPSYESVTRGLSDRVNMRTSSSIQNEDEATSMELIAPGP
# Method: (§1) Biological assays were performed on Chinese hamster ovary (CHO) cells expressing the human sodium channels Nav 1.8 and Nav 1.7 stably.
# (§2) The experimental voltage-clamp protocol using the whole cell configuration was established on the automated ScreenPatch® 384P platform (SP384PE, Nanion Technologies, Livingston, NJ) and recording of the results was performed with a Nanion 384-well Patch Clamp chip (NPC) (Nanion Technologies, Livingston, NJ).
# (§3) Compounds of Formula (I), were diluted in eight concentrations in the extracellular solution composed of physiological saline, buffered with HEPES (mM): NaCl, 137; KCl, 4; CaCl2, 3.8; MgCl2, 1; HEPES, 10; Glucose, 10; pH 7.4. The […], 50; CsF, 90; MgCl2, 5; EGTA, 5; HEPES, 10; pH 7.2. The duration of exposure of each compound with the cells expressing Nav 1.7 or Nav 1.8 was at least five minutes and the assays were performed at room temperature.
# (§4) The measurements of the sodium currents of Nav 1.8 and Nav 1.7 were obtained using the voltage protocols described below: • Protocol 1: A holding voltage of −90 mV was established followed by a voltage phase of 200 ms to −120 mV, followed by a voltage step of 10 mV for 1 second for Nav 1.8 or 0 mV for Nav 1.7, followed by a step of −100 mV for 20 ms, followed by a step of 20 ms for 10 mV for Nav 1.8 or 0 mV for Nav 1.7 (TP1A) before returning to the holding voltage of −90 mV. • Protocol 2: A holding voltage of −100 mV was established followed by an inactivation voltage step at −40 mV for 8 seconds, followed by a −100 mV step for […], followed by a 20 ms step for 10 mV for Nav 1.8 or 0 mV for Nav 1.7 (TP1A) before returning to the holding voltage of −100 mV.
# (§5) Protocols were repeated at a frequency of 0.1 Hz (Protocol 1) or 0.05 Hz (Protocol 2) and current amplitude was quantified over the TP1A phase log. The variation in the peak amplitude of the current was evaluated according to the Formula described below, after exposure of the cells expressing the channels, at each concentration of the different compounds:
# (§6) [formula] • where |TP1A, basal, and |TP1A, molecule represent the entry peaks of sodium currents into TP1A prior to exposure to the compound and in the presence of the compound, respectively.
# (§7) The decrease in peak current amplitude, after exposure of the cells to the compounds, was used to calculate the percent relative blocking of the channels relative to the positive control according to the Formula below:
# (§8) [formula] • where % V and % CP represent the averages of the values of current inhibition with a vehicle (DMSO) and positive controls, respectively. The sodium currents of the positive control were considered as 100%.
# (§9) [formula] • where [Test] represents the concentration of the evaluated molecule, IC50 is the concentration of the compound that generates half of the maximum inhibition, N is the Hill's coefficient and % Block′ is the percentage of the sodium channel current (Nav 1.8 and Nav 1.7) inhibited at each concentration of the evaluated molecule. Data were obtained by non-linear least squares regression with XLfit for Excel (Microsoft, Redmond, WA).
# (§10) Compounds were tested in at least one assay to obtain the IC50 value.
# [2] = molecular target: human sodium channels Nav 1.7 (Homo sapiens (Human), UniProt Q15858); test: Automated whole-cell voltage-clamp (ScreenPatch 384P), Nav 1.7 sodium current, Protocol 1; type: cell-based; details: CHO cells expressing human Nav 1.7; for IC50: Protocol 1 (holding −90 mV, 0.1 Hz), room temperature, read-out: Nav1.7 IC50; for inhibition at 10 µM: Protocol 1, read-out: Nav1.7 percent of inhibition (IC50 value not available)
# Chain of human sodium channels Nav 1.7 (Q15858 whole entry): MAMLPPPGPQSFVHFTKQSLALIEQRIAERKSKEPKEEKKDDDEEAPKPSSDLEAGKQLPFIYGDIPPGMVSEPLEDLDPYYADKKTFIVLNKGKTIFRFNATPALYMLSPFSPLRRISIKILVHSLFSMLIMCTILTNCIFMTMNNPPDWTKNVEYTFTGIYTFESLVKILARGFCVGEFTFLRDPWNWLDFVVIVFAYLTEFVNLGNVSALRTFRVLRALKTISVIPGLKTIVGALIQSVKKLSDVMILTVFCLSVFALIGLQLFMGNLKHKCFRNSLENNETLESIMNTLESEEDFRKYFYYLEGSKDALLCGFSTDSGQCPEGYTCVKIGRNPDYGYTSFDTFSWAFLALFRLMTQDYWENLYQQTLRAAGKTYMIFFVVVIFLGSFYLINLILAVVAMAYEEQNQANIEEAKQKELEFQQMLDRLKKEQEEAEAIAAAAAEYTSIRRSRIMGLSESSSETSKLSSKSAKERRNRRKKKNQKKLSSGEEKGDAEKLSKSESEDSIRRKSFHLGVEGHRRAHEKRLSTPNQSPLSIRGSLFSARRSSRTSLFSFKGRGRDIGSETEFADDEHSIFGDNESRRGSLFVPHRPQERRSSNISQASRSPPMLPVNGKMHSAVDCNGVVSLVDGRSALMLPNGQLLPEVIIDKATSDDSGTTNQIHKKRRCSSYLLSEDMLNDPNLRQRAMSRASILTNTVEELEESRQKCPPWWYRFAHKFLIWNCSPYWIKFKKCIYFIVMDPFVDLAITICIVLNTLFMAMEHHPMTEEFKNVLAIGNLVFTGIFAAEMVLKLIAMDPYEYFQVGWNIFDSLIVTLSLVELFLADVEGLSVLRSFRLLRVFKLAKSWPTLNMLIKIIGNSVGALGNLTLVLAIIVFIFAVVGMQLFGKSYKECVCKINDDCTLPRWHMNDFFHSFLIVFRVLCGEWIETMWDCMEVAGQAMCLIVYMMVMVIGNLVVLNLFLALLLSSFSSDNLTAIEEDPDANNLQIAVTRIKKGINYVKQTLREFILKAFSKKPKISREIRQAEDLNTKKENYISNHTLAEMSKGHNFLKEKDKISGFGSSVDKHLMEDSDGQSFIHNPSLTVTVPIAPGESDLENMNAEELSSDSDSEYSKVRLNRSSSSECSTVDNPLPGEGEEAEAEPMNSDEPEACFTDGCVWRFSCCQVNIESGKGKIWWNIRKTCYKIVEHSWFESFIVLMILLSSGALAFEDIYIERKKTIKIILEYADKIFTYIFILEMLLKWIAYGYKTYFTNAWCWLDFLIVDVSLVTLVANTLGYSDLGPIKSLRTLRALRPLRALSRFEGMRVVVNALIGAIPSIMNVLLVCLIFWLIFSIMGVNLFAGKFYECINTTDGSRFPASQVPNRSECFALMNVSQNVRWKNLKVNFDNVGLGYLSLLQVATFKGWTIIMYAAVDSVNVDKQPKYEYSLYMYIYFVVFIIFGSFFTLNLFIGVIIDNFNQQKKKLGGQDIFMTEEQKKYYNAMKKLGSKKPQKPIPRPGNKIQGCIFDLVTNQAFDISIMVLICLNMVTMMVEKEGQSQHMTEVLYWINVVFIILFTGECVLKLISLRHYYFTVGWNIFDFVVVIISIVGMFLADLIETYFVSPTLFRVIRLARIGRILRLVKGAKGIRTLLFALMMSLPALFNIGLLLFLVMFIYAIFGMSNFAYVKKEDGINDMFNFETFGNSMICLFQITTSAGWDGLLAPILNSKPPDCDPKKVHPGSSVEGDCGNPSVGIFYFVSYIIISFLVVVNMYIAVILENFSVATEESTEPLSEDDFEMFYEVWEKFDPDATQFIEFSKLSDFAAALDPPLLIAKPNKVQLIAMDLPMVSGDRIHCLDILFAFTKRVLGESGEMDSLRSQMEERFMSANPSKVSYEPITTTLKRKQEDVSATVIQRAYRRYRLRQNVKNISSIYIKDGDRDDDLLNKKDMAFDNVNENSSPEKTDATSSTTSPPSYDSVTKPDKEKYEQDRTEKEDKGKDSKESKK
# Method: as §1, §2, §3, §4, §5, §6, §7, §8, §9, §10
SMILES,IC50 [1] [µM],IC50 [2] [µM],inhibition at 10 µM [1] [%],inhibition at 10 µM [2] [%]
"COc1cc(/C=N/NC(=O)c2ccc(-c3ccc(Cl)cc3)o2)cc(OC)c1 [Compound 2, (E)-5-(4-chlorophenyl)-N′-(3,5-dimethoxybenzylidene) furan-2-carbohydrazide]",> 30,> 30,–,–
"CCOc1ccc(-c2ccc(C(=O)N/N=C/c3cccs3)o2)cc1 [Compound 3, (E)-5-(4-ethoxyphenyl)-N′-(thiophen-2-ylmethylene) furan-2-carbohydrazide]",> 30,> 30,–,–
"CCOc1ccc(-c2ccc(C(=O)N/N=C/c3cccnc3N3CCOCC3)o2)cc1 [Compound 4, (E)-5-(4-ethoxyphenyl)-N′-((2-morpholinopyridin-3-yl)methylene) furan-2-carbohydrazide]",–,–,< 10,< 10
"CCOc1ccc(-c2ccc(C(=O)N/N=C/c3cccnc3)o2)cc1 [Compound 6, (E)-5-(4-ethoxyphenyl)-N′-(pyridin-3-ylmethylene) furan-2-carbohydrazide]",–,–,< 10,< 10
"CC(C)Oc1ccc(-c2ccc(C(=O)N/N=C/c3cccs3)o2)cc1 [Compound 7, (E)-5-(4-isopropoxyphenyl)-N′-(thiophen-2-ylmethylene) furan-2-carbohydrazide]",> 6.27,> 16.7,–,–
"CC(C)Oc1ccc(-c2ccc(C(=O)N/N=C/c3cc(CN(C)C)cs3)o2)cc1 [Compound 8, (E)-N′-((4-((dimethylamino)methyl)thiophen-2-yl)methylene)-5-(4-isopropoxyphenyl) furan-2-carbohydrazide]",–,–,< 10,< 10
"O=C(N/N=C/c1cccs1)c1ccc(-c2ccc(OCCN3CCOCC3)cc2)o1 [Compound 9, (E)-5-(4-(2-morpholinoethoxy)phenyl)-N′-(thiophen-2-ylmethylene) furan-2-carbohydrazide]",–,–,< 10,< 10
"O=C(N/N=C/c1cccs1)c1cccc(-c2ccc(Cl)cc2)n1 [Compound 11, (E)-6-(4-chlorophenyl)-N′-(thiophen-2-ylmethylene) picolinohydrazide]",8.58,12,–,–
"COc1cc(/C=N/NC(=O)c2cncc(-c3ccc(Cl)cc3)c2)cc(OC)c1 [Compound 16, (E)-5-(4-chlorophenyl)-N′-(3,5-dimethoxybenzylidene) nicotinohydrazide]",4.25,4.12,–,–
"COc1cc(/C=N/NC(=O)c2cncc(-c3ccc(OC(F)(F)F)cc3)c2)cc(OC)c1 [Compound 17, (E)-N′-(3,5-dimethoxybenzylidene)-5-(4-(trifluoromethoxy)phenyl) nicotinohydrazide]",6.83,7.09,–,–
"COc1cc(/C=N/NC(=O)c2cncc(-c3ccc(OC(C)C)cc3)c2)cc(OC)c1 [Compound 19, (E)-N′-(3,5-dimethoxybenzylidene)-5-(4-isopropoxyphenyl) nicotinohydrazide]",5.9,5.72,–,–
"CCOc1ccc(-c2cc(C(=O)N/N=C/c3cc(OC)cc(OC)c3)ccn2)cc1 [Compound 22, (E)-N′-(3,5-dimethoxybenzylidene)-2-(4-ethoxyphenyl) isonicotinohydrazide]",> 10,> 10,–,–
"COc1cc(/C=N/NC(=O)c2cccc(-c3ccc(OC(C)C)cc3)n2)cc(OC)c1 [Compound 24, (E)-N′-(3,5-dimethoxybenzylidene)-6-(4-isopropoxyphenyl) picolinohydrazide]",5.9,5.72,–,–
"COc1ccc(-c2cncc(C(=O)N/N=C/c3cc(OC)cc(OC)c3)c2)cc1 [Compound 25, (E)-N′-(3,5-dimethoxybenzylidene)-5-(4-methoxyphenyl) nicotinohydrazide]",> 10,> 10,–,–
"CCCOc1ccc(-c2cncc(C(=O)N/N=C/c3cc(OC)cc(OC)c3)c2)cc1 [Compound 26, (E)-N′-(3,5-dimethoxybenzylidene)-5-(4-propoxyphenyl) nicotinohydrazide]",> 10,3.5,–,–
"CCCCOc1ccc(-c2cncc(C(=O)N/N=C/c3cc(OC)cc(OC)c3)c2)cc1 [Compound 27, (E)-5-(4-butoxyphenyl)-N′-(3,5-dimethoxybenzylidene) nicotinohydrazide]",> 10,> 10,–,–
"COc1cc(/C=N/NC(=O)c2cncc(-c3ccc(OC4CCCC4)cc3)c2)cc(OC)c1 [Compound 28, (E)-5-(4-(cyclopentyloxy)phenyl)-N′-(3,5-dimethoxybenzylidene) nicotinohydrazide]",> 10,> 10,–,–
"CCCOc1ccc(-c2cc(C(=O)N/N=C/c3cc(OC)cc(OC)c3)ccn2)cc1 [Compound 30, (E)-N′-(3,5-dimethoxybenzylidene)-2-(4-propoxyphenyl) isonicotinohydrazide]",> 10,> 10,–,–

# Further lines, results first:
IC50 [1] [µM],IC50 [2] [µM],inhibition at 10 µM [1] [%],inhibition at 10 µM [2] [%],SMILES
–,–,< 10,< 10,"CCOc1ccc(-c2ccc(C(=O)N/N=C/c3cc(CN(C)C)cs3)o2)cc1 [Compound 5, (E)-N′-((4-((dimethylamino)methyl)thiophen-2-yl)methylene)-5-(4-ethoxyphenyl) furan-2-carbohydrazide]"
3.21,1.89,–,–,"CCOc1ccc(-c2cccc(C(=O)N/N=C/c3cccs3)n2)cc1 [Compound 12, (E)-6-(4-ethoxyphenyl)-N′-(thiophen-2-ylmethylene) picolinohydrazide]"
–,–,< 10,< 10,"CC(C)Oc1ccc(-c2cccc(C(=O)N/N=C/c3cccs3)n2)cc1 [Compound 13, (E)-6-(4-isopropoxyphenyl)-N′-(thiophen-2-ylmethylene) picolinohydrazide]"
6.83,7.09,–,–,"CCOc1ccc(-c2cncc(C(=O)N/N=C/c3cc(OC)cc(OC)c3)c2)cc1 [Compound 18, (E)-N′-(3,5-dimethoxybenzylidene)-5-(4-ethoxyphenyl) nicotinohydrazide]"
–,–,< 10,< 10,"COc1cc(/C=N/NC(=O)c2ccnc(-c3ccc(Cl)cc3)c2)cc(OC)c1 [Compound 20, (E)-2-(4-chlorophenyl)-N′-(3,5-dimethoxybenzylidene) isonicotinohydrazide]"
–,–,< 10,< 10,"COc1cc(/C=N/NC(=O)c2ccnc(-c3ccc(OC(F)(F)F)cc3)c2)cc(OC)c1 [Compound 21, (E)-N′-(3,5-dimethoxybenzylidene)-2-(4-(trifluoromethoxy)phenyl) isonicotinohydrazide]"
> 10,> 10,–,–,"COc1cc(/C=N/NC(=O)c2ccnc(-c3ccc(OC(C)C)cc3)c2)cc(OC)c1 [Compound 23, (E)-N′-(3,5-dimethoxybenzylidene)-2-(4-isopropoxyphenyl) isonicotinohydrazide]"
> 10,> 10,–,–,"COc1ccc(-c2cc(C(=O)N/N=C/c3cc(OC)cc(OC)c3)ccn2)cc1 [Compound 29, (E)-N′-(3,5-dimethoxybenzylidene)-2-(4-methoxyphenyl) isonicotinohydrazide]"
1.36,1.04,–,–,"CCOc1ccc(-c2cccc(C(=O)N/N=C/c3ccccc3F)n2)cc1 [Compound 32, (E)-6-(4-ethoxyphenyl)-N′-(2-fluorobenzylidene) picolinohydrazide]"
> 10,> 10,–,–,"CCOc1ccc(-c2cccc(C(=O)N/N=C/c3ccccc3Cl)n2)cc1 [Compound 33, (E)-N′-(2-chlorobenzylidene)-6-(4-ethoxyphenyl) picolinohydrazide]"
